Test results as given in patent publication US4528289A, “Corynantheine derivates, processes for their preparation, and their use” (Dr. Willmar Schwabe GmbH & Co., priority 1982, dated 1985).
Where a name gives a salt, the structure may show the parent alone.

Test: hygroscopicity of crystals
Assay type: physicochemical
Conditions: crystals dried at 110° C. for 8 hours at oil pump vacuum
Description: For analysis, the product is again recrystallised from methanol by the addition of diethyl ether. […] 187° C. (decomp. from 158° C., subl. of the base); [α]D^20 =-26° (c=2 in methanol).

CC[C@H]1CN2CCc3c([nH]c4ccccc34)[C@@H]2C[C@@H]1C(COC)C(=O)OC (stereo partly shown) [Example 9, tetrahydrocorynantheine hydrochloride]
hygroscopicity (in words): slightly hygroscopic
